{"source": "patent US20250382293A1", "about": "“COMPOUNDS AND METHODS FOR YAP/TEAD MODULATION AND INDICATIONS THEREFOR” (OPNA BIO SA, priority 2023, published 2025)"}
{"tested_on": "TEAD-dependent transcription", "assay": "Inhibitor activity against TEAD-dependent transcription in a cell-based reporter assay (MSTO-211H+12XGTIIC luciferase)", "conditions": "Homo sapiens; MSTO-211H+12XGTIIC cells, 24 hours compound incubation, luminescence normalized to cell viability signal; read-out: MSTO-211H GMean IC50 (uM) Cell Assay Reporter Cell Variant: TEAD", "text": "Determine Inhibitor Activity Against TEAD-Dependent Transcription in a Cell-Based Reporter Assay\nThe human mesothelioma cell line MSTO-211H was stably transfected with a pGL4.21 plasmid containing a synthetic promoter with 12 copies of the GTIIC TEAD response element that drives the expression of a luciferase reporter gene 1 using Lipofectamine transfection reagent (Thermo Fisher). Transfected cells were selected using puromycin and single cell clones expressing this construct (referred to as MSTO-211H+12XGTIIC) were generated by limiting dilution. MSTO-211H cells was characterized by genetic alterations in key components of the Hippo pathway^2, resulting in up-regulation of YAP/TEAD-mediated transcription. […] To evaluate TEAD inhibitors, the MSTO-211H+12XGTIIC cell line was seeded in a 96-well plate in 50 μL of culture media at 1×10^4 cells per well and incubated at 37° C. overnight. Serial dilutions of compounds (in total volume of 50 μL of culture media) were added to the cells and incubated at 37° C. for 24 hours. Each plate included cells treated with DMSO as high controls and cells treated with 20 μM of the reference compound K-975 (a known TEAD inhibitor) 3 as low controls. Cell viability was assayed by the addition of 25 μL of CellTiter-Fluor reagent (Promega) followed by a 30-minute incubation at 37° C. and quantification of the fluorescence signal (Ex400/Em505). Subsequently, luciferase expression was assayed by the addition of 25 μL of ONE-Glo reagent (Promega) followed by a 10-minute incubation at room temperature and quantification of the luminescence signal. The luminescence signal was normalized to the fluorescence signal to correct for any loss in cell viability over the 24-hour compound incubation period. The percentage of inhibition of normalized luminescence signal, indicative of compound-mediated inhibition of TEAD-dependent transcription, at individual compound concentrations relative to high and low controls was calculated. The data were analyzed by using nonlinear regression to generate IC50 values for individual compounds.", "units": {"IC50": "µM"}}
{"smiles": "C=CC(=O)N1CCC(N2CCc3c(cccc3Oc3ccc(C(F)(F)F)cc3)C2)CC1", "note": "[O-0123, 1-(4-(5-(4-(trifluoromethyl)phenoxy)-3,4-dihydroisoquinolin-2(1H)-yl)piperidin-1-yl)prop-2-en-1-one]", "IC50": "0.001 to 10"}
{"smiles": "O=C(CCS(=O)(=O)C(F)(F)F)N1CCc2c(ncnc2Oc2ccc(C(F)(F)F)cc2)C1", "note": "[O-0003, 1-(4-(4-(trifluoromethyl)phenoxy)-5,8-dihydropyrido[3,4-d]pyrimidin-7(6H)-yl)-3-((trifluoromethyl)sulfonyl)propan-1-one]", "IC50": "0.001 to 10"}
{"smiles": "O=S(=O)(N1CC(N2CCc3c(cccc3Oc3ccc(C(F)(F)F)cc3)C2)C1)C(F)(F)F", "note": "[O-0116, 5-(4-(trifluoromethyl)phenoxy)-2-(1-((trifluoromethyl)sulfonyl)azetidin-3-yl)-1,2,3,4-tetrahydroisoquinoline]", "IC50": "0.001 to 10"}
{"smiles": "O=C(CCS(=O)(=O)C(F)(F)F)N1CCc2c(cccc2Oc2ccc(C(F)(F)F)nc2)C1", "note": "[O-0002, 1-(5-((6-(trifluoromethyl)pyridin-3-yl)oxy)-3,4-dihydroisoquinolin-2(1H)-yl)-3-((trifluoromethyl)sulfonyl)propan-1-one]", "IC50": "0.001 to 10"}
{"smiles": "CS(=O)(=O)Nc1nc(C(=O)N2CCc3c(cccc3Oc3ccc(C(F)(F)F)c(F)c3)C2)cs1", "note": "[O-0109, N-(4-(5-(3-fluoro-4-(trifluoromethyl)phenoxy)-1,2,3,4-tetrahydroisoquinoline-2-carbonyl)thiazol-2-yl)methanesulfonamide]", "IC50": "10 to 100"}
{"smiles": "CNS(=O)(=O)c1nc(C(=O)N2CCc3c(cccc3Oc3ccc(C(F)(F)F)cc3)C2)cs1", "note": "[O-0107, N-methyl-4-(5-(4-(trifluoromethyl)phenoxy)-1,2,3,4-tetrahydroisoquinoline-2-carbonyl)thiazole-2-sulfonamide]", "IC50": "0.001 to 10"}
{"smiles": "CS(=O)(=O)N1CCCC(N2CCc3c(cccc3Oc3ccc(C(F)(F)F)cc3)C2)C1", "note": "(stereo not shown) [O-0111, 2-(1-(methylsulfonyl)piperidin-3-yl)-5-(4-(trifluoromethyl)phenoxy)-1,2,3,4-tetrahydroisoquinoline]", "IC50": "0.001 to 10"}
{"smiles": "CS(=O)(=O)N1CC(N2CCc3c(cccc3Oc3ccc(C(F)(F)F)cc3)C2)C1", "note": "[O-0115, 2-(1-(methylsulfonyl)azetidin-3-yl)-5-(4-(trifluoromethyl)phenoxy)-1,2,3,4-tetrahydroiso-quinoline]", "IC50": "0.001 to 10"}
{"smiles": "C=CS(=O)(=O)N1CCC(N2CCc3c(cccc3Oc3ccc(C(F)(F)F)cc3)C2)C1", "note": "(stereo not shown) [O-0113, 5-(4-(trifluoromethyl)phenoxy)-2-(1-(vinylsulfonyl)pyrrolidin-3-yl)-1,2,3,4-tetrahydroisoquinoline]", "IC50": "0.001 to 10"}
{"smiles": "C=CS(=O)(=O)N1CC(N2CCc3c(cccc3Oc3ccc(C(F)(F)F)cc3)C2)C1", "note": "[O-0118, 5-(4-(trifluoromethyl)phenoxy)-2-(1-(vinylsulfonyl)azetidin-3-yl)-1,2,3,4-tetrahydroisoquinoline.]", "IC50": "10 to 100"}
{"smiles": "C=CS(=O)(=O)N1CCc2cc(Oc3ccc(C(F)(F)F)cc3)ccc2C1", "note": "[O-0064, 6-(4-(trifluoromethyl)phenoxy)-2-(vinylsulfonyl)-1,2,3,4-tetrahydroisoquinoline]", "IC50": "0.001 to 10"}
{"smiles": "C=CC(=O)N1CCc2cc(Oc3ccc(C(F)(F)F)cc3)ccc2C1", "note": "[O-0058, 1-(6-(4-(trifluoromethyl)phenoxy)-3,4-dihydroisoquinolin-2(1H)-yl)prop-2-en-1-one]", "IC50": "0.001 to 10"}
{"smiles": "CCNS(=O)(=O)c1nc(C(=O)N2CCc3c(cccc3Oc3ccc(C(F)(F)F)cc3)C2)cs1", "note": "[O-0108, N-ethyl-4-(5-(4-(trifluoromethyl)phenoxy)-1,2,3,4-tetrahydroisoquinoline-2-carbonyl)thiazole-2-sulfonamide]", "IC50": "0.001 to 10"}
{"smiles": "C=CC(=O)N1CCC(N2CCc3c(cccc3Oc3ccc(C(F)(F)F)cc3)C2)C1", "note": "(stereo not shown) [O-0114, 1-(3-(5-(4-(trifluoromethyl)phenoxy)-3,4-dihydroisoquinolin-2(1H)-yl)pyrrolidin-1-yl)prop-2-en-1-one]", "IC50": "0.001 to 10"}
{"smiles": "O=S(=O)(N1CCC(N2CCc3c(cccc3Oc3ccc(C(F)(F)F)cc3)C2)CC1)C(F)(F)F", "note": "[O-0121, 5-(4-(trifluoromethyl)phenoxy)-2-(1-((trifluoromethyl)sulfonyl)piperidin-4-yl)-1,2,3,4-tetrahydroisoquinoline]", "IC50": "0.001 to 10"}
{"smiles": "O=S(=O)(N1CCC(N2CCc3c(cccc3Oc3ccc(C(F)(F)F)cc3)C2)C1)C(F)(F)F", "note": "(stereo not shown) [O-0112, 5-(4-(trifluoromethyl)phenoxy)-2-(1-((trifluoromethyl)sulfonyl)pyrrolidin-3-yl)-1,2,3,4-tetrahydroisoquinoline.]", "IC50": "0.001 to 10"}
{"smiles": "O=S(=O)(c1ccccc1)N1CCc2cc(Oc3ccc(C(F)(F)F)cc3)ccc2C1", "note": "[O-0104, 2-(phenylsulfonyl)-6-(4-(trifluoromethyl)phenoxy)-1,2,3,4-tetrahydroisoquinoline]", "IC50": "10 to 100"}
{"smiles": "O=C(CCl)N1CCc2cc(Oc3ccc(C(F)(F)F)cc3)ccc2C1", "note": "[O-0070, 2-chloro-1-(6-(4-(trifluoromethyl)phenoxy)-3,4-dihydroisoquinolin-2(1H)-yl)ethan-1-one]", "IC50": "0.001 to 10"}
{"smiles": "CS(=O)(=O)Nc1nc(C(=O)N2CCc3c(cccc3Oc3ccc(C(F)(F)F)c(F)c3)C2)co1", "note": "[O-0106, N-(4-(5-(3-fluoro-4-(trifluoromethyl)phenoxy)-1,2,3,4-tetrahydroisoquinoline-2-carbonyl)oxazol-2-yl)methanesulfonamide]", "IC50": "10 to 100"}
{"smiles": "CS(=O)(=O)Nc1nc(C(=O)N2CCc3c(cccc3Oc3ccc(C(F)(F)F)cc3)C2)cs1", "note": "[O-0110, N-(4-(5-(4-(trifluoromethyl)phenoxy)-1,2,3,4-tetrahydroisoquinoline-2-carbonyl)thiazol-2-yl)methanesulfonamide]", "IC50": "0.001 to 10"}
{"smiles": "CS(=O)(=O)N1CCC(N2CCc3c(cccc3Oc3ccc(C(F)(F)F)cc3)C2)CC1", "note": "[O-0120, 2-(1-(methylsulfonyl)piperidin-4-yl)-5-(4-(trifluoromethyl)phenoxy)-1,2,3,4-tetrahydroisoquinoline]", "IC50": "0.001 to 10"}
{"smiles": "C=CC(=O)N1CC(N2CCc3c(cccc3Oc3ccc(C(F)(F)F)cc3)C2)C1", "note": "[O-0119, 1-(3-(5-(4-(trifluoromethyl)phenoxy)-3,4-dihydroisoquinolin-2(1H)-yl)azetidin-1-yl)prop-2-en-1-one]", "IC50": "0.001 to 10"}
{"smiles": "C=CS(=O)(=O)N1CCC(N2CCc3c(cccc3Oc3ccc(C(F)(F)F)cc3)C2)CC1", "note": "[O-0122, 5-(4-(trifluoromethyl)phenoxy)-2-(1-(vinylsulfonyl)piperidin-4-yl)-1,2,3,4-tetrahydroisoquinoline]", "IC50": "10 to 100"}
{"smiles": "CCCNS(=O)(=O)c1nc(C(=O)N2CCc3c(cccc3Oc3ccc(C(F)(F)F)cc3)C2)cs1", "note": "[O-0105, N-propyl-4-(5-(4-(trifluoromethyl)phenoxy)-1,2,3,4-tetrahydroisoquinoline-2-carbonyl)thiazole-2-sulfonamide]", "IC50": "0.001 to 10"}
{"smiles": "O=C(c1c[nH]c(C(F)(F)F)n1)N1CCc2cc(Oc3ccc(C(F)(F)F)cc3)ccc2C1", "note": "[O-0074, (2-(trifluoromethyl)-1H-imidazol-4-yl)(6-(4-(trifluoromethyl)phenoxy)-3,4-dihydroisoquinolin-2(1H)-yl)methanone]", "IC50": "0.001 to 10"}
